{"source": "patent US8975290B2", "about": "“Methods and compositions for enhancing an immune response, blocking monocyte migration, amplifying vaccine immunity and inhibiting tumor growth and metastasis” (Colorado State University Research Foundation, priority 2013, dated 2015)", "key": {"[1]": {"conditions": "cited from earlier work"}, "[2]": {"system": "inflammatory monocytes", "experiment": "Footpad inflammation-induced monocyte migration assay (flow cytometry of draining popliteal lymph nodes)", "assay_type": "in vivo", "conditions": "mice, 24 h after vaccination, vs vaccine only", "method": "Footpad inflammation-induced monocyte migration assays were performed as previously described (Mitchell et al. (2012), J. Immunology 189: 5612-5621) to determine whether Ondansetron inhibits monocyte migration in vivo in mice. Briefly, two groups of mice (n=4 per group) were injected with 50 μl of liposomal vaccine adjuvant in one footpad. The first group of mice was treated by injection of 3 mg/kg Ondansetron administered IP at the time of footpad injection and the Ondansetron injections were repeated 12, 24, and 36 hours following footpad injection. […] The third group received neither the vaccine nor the Ondansetron. Inflammatory monocyte migration to the draining popliteal lymph nodes was assessed in all three groups of mice via flow cytometry (as described in Mitchell et al. (2012), J. Immunology, supra) 24 hours following vaccination.\nBriefly, two groups of mice (n=4 per group) were vaccinated in the right rear footpad. […] Inflammatory monocyte migration to the draining popliteal lymph nodes was assessed in all three groups of mice via flow cytometry (as described in Mitchell et al. (2012), J. Immunology, supra) 24 hours following vaccination."}, "[3]": {"system": "monocytes", "experiment": "Boyden chamber assay on blood samples of Losartan-treated dogs", "assay_type": "in vivo"}, "[4]": {"system": "human monocyte cell line THP-1", "experiment": "Boyden chamber assay, human monocyte migration in response to a CCL2 (MCP-1) gradient", "assay_type": "cell-based", "conditions": "dose dependent, FIG. 1 (Losartan), FIG. 3 (Ondansetron)", "method": "The Boyden chamber assay is based on a chamber of two medium-filled compartments separated by a microporous membrane. In general, cells are placed in the upper compartment and are allowed to migrate through the pores of the membrane into the lower compartment, in which chemotactic agents are present. After an appropriate incubation time, the membrane between the two compartments is fixed and stained, and the number of cells that have migrated to the lower side of the membrane is determined. Experiments using this assay were performed as described in Mitchell et al. (2012) Int. Immunopharmacol. 15: 357-363 to assess the migration of monocytes. […] A Boyden chamber assay was performed (as described in Mitchell et al. (2012) Int. Immunopharmacol, supra) to assess the migration of human monocytes (i.e., the human monocyte cell line THP-1) in response to a CCL2 (MCP-1) gradient and to assess the ability of Ondansetron to inhibit monocyte migration in vitro."}, "[5]": {"system": "spleen cells", "experiment": "IFNγ secretion of spleen cells in response to ovalbumin restimulation (cellular immunity)", "assay_type": "in vivo", "conditions": "vaccinated mice treated concurrently with Losartan; restimulated in vitro 72 hours with 5 μg/ml ovalbumin; vs vaccine only; p<0.05 (FIG. 11)", "method": "Two groups of mice were immunized as noted in Example 7 above. To determine whether cellular immunity was enhanced in the Losartan-treated mice, mice from both the first and second groups were euthanized, and their spleen cells were assayed to determine IFNγ secretion levels in response to ovalbumin restimulation. Splenectomies and restimulation assays for cellular immune responses were performed as previously described (Mitchell et al. (2012), J. Immunology, supra). Spleen cells were restimulated in vitro for 72 hours with 5 μg/ml ovalbumin protein."}, "[6]": {"system": "ovalbumin", "experiment": "Anti-ovalbumin antibody titers after ovalbumin vaccination (humoral immunity)", "assay_type": "in vivo", "conditions": "mice, boost at day 10, vs vaccine only", "method": "Briefly, two groups of mice (n=5) were vaccinated with 5 μg of ovalbumin. […] The second group of mice received no additional treatment following vaccination. Second vaccinations were repeated 10 days following the initial vaccinations.\nTo assess the effects of Ondansetron on humoral immunity, mice were treated with Ondansetron at the time of vaccination. Briefly, two groups of mice (n=4 per group) were vaccinated subcutaneously with 1 μg of ovalbumin in a liposomal adjuvant. The first group of mice received 3 mg/kg Ondansetron via i.p. injection at the time of vaccination, and at 12, 24, and 36 hours following vaccination. The second group of mice received no additional treatment following vaccination. A third group of mice received neither the vaccine nor the Ondansetron. Second vaccinations were repeated for the first two groups of mice 10 days following the initial vaccinations, and second Ondansetron treatments were repeated for the groups as described for the first cycle of vaccination."}, "[7]": {"system": "dog monocytes", "experiment": "Boyden chamber assay, dog monocyte migration in response to a CCL2 (MCP-1) gradient", "assay_type": "cell-based", "method": "The Boyden chamber assay is based on a chamber of two medium-filled compartments separated by a microporous membrane. In general, cells are placed in the upper compartment and are allowed to migrate through the pores of the membrane into the lower compartment, in which chemotactic agents are present. After an appropriate incubation time, the membrane between the two compartments is fixed and stained, and the number of cells that have migrated to the lower side of the membrane is determined. Experiments using this assay were performed as described in Mitchell et al. (2012) Int. Immunopharmacol. 15: 357-363 to assess the migration of monocytes."}, "[8]": {"system": "A20-HA tumors", "experiment": "A20 mouse B-cell lymphoma model, tumor vaccine responses", "assay_type": "in vivo, mice", "method": "The A20 mouse B-cell lymphoma model was used to assess the effects of Ondansetron on tumor vaccine responses. Briefly, two groups of mice (n=5 per group) with established d3 A20-HA tumors (i.e., tumors expressing HA) were vaccinated weekly for 3 weeks with HA antigen (1 μg per mouse in liposome adjuvant), either without or with concurrently administered ondansetron (3 mg/kg i.p., administered 4 times at 12 h intervals). A third group of mice received neither the HA nor the Ondansetron. Tumor measurements were made using calipers every 2-3 days. Mice were sacrificed when their tumors reached a diameter of 1.5 cm.\nLabeled anti-CD11b antibodies were used to quantitate the numbers of infiltrating CD11b+ monocyte/macrophages in the tumor tissues."}, "[9]": {"conditions": "Table 2, Comparison of ARB Pharmacokinetics"}}, "note": "Where two headings read alike, the source gives them in different places.", "data": [{"smiles": "CCOc1nc2cccc(C(=O)O)c2n1Cc1ccc(-c2ccccc2-c2nnn[nH]2)cc1", "note": "[Candesartan]", "values": [{"measurement": "Bioavailability", "setting": "[1]; [9]", "value": 15, "unit": "%"}, {"measurement": "Biological Half-Life", "setting": "[1]; [9]", "value": 9, "unit": "hours"}]}, {"smiles": "CCCCC1=NC2(CCCC2)C(=O)N1Cc1ccc(-c2ccccc2-c2nnn[nH]2)cc1", "note": "[Irbesartan]", "values": [{"measurement": "Biological Half-Life", "setting": "[1]; [9]", "value": "11-15 hours"}]}, {"smiles": "CCCc1nc(C(C)(C)O)c(C(=O)O)n1Cc1ccc(-c2ccccc2-c2nnn[nH]2)cc1", "note": "[Olmesartan]", "values": [{"measurement": "Bioavailability", "setting": "[1]; [9]", "value": 29, "unit": "%"}, {"measurement": "Biological Half-Life", "setting": "[1]; [9]", "value": "14-16 hours"}]}, {"smiles": "CCCCc1nc(Cl)c(CO)n1Cc1ccc(-c2ccccc2-c2nn[nH]n2)cc1", "note": "[Losartan]", "values": [{"measurement": "migration of inflammatory monocytes to the draining lymph nodes", "setting": "[2]; 30 mg/kg Losartan at injection and 12 h after, p<0.05 (FIG. 6)", "value": "significantly reduced"}, {"measurement": "monocyte migration in blood samples after treatment", "setting": "[3]; 3 dogs with cancer, 2 mg/kg/day for two weeks, pooled data, FIG. 8", "value": "Monocyte migration was inhibited"}, {"measurement": "monocyte migration in blood samples after treatment", "setting": "[3]; healthy dogs, 2 mg/kg/day for 48 hours, vs before treatment, FIG. 7", "value": "significantly inhibited"}, {"measurement": "human monocyte migration (THP-1) in vitro", "setting": "[4]", "value": "potently blocked human monocyte migration (THP-1) in vitro in a dose dependent manner"}, {"measurement": "IFNγ production by spleen cells", "setting": "[5]", "value": "produced significantly more IFNγ"}, {"measurement": "anti-ovalbumin antibody titers", "setting": "[6]; 5 μg ovalbumin, 30 mg/kg Losartan at vaccination and 12, 24, 36 h after, p<0.05 (FIG. 9)", "value": "significantly higher anti-ovalbumin antibody titers"}, {"measurement": "canine monocyte migration in vitro", "setting": "[7]; CCL2 (MCP-1) gradient, dose dependent, FIG. 2", "value": "potently blocked canine monocyte migration in vitro in a dose dependent manner"}, {"measurement": "canine monocyte migration in the presence of MCP-1", "setting": "[7]; concentrations of 1 μg/ml and 10 μg/ml", "value": "blocked canine monocyte migration even in the presence of MCP-1"}]}, {"smiles": "Cc1nccn1CC1CCc2c(c3ccccc3n2C)C1=O", "note": "(centres unmarked) [Ondansetron]", "values": [{"measurement": "migration of inflammatory monocytes to the draining lymph nodes", "setting": "[2]; 3 mg/kg Ondansetron IP at footpad injection and 12, 24, 36 h after, p<0.001 (FIG. 4, 5)", "value": "significantly reduced"}, {"measurement": "Biological Half-Life", "setting": "[1]; text b221", "value": "about 3.9 hours"}, {"measurement": "infiltrating CD11b+ monocyte/macrophages in tumor tissues", "setting": "[8]; immunohistochemistry, vaccine with Ondansetron vs vaccine alone, FIG. 13", "value": "markedly fewer monocyte/macrophages"}, {"measurement": "tumor growth rates", "setting": "[8]; mice with A20-HA tumors, HA vaccine weekly for 3 weeks with ondansetron 3 mg/kg i.p. 4 times at 12 h intervals, vs vaccine only, FIG. 12", "value": "significantly reduced"}, {"measurement": "human monocyte migration (THP-1) in vitro", "setting": "[4]", "value": "potently blocked THP-1 monocyte migration in vitro in a dose dependent manner"}, {"measurement": "anti-ovalbumin antibody titers", "setting": "[6]; 1 μg ovalbumin s.c. in liposomal adjuvant, 3 mg/kg Ondansetron i.p. at vaccination and 12, 24, 36 h after, p<0.05 (FIG. 10)", "value": "significantly higher anti-ovalbumin antibody titers"}]}, {"smiles": "CCCc1nc2c(C)cc(-c3nc4ccccc4n3C)cc2n1Cc1ccc(-c2ccccc2C(=O)O)cc1", "note": "[Telmisartan]", "values": [{"measurement": "Bioavailability", "setting": "[1]; [9]", "value": "42-58%"}]}]}
